Drawing on publication PMC12040169 (PLOS Biology, 2025), this text covers viability for 71 compounds.

The nature of one data set: in vitro. Particulars: human, hela cells, % viability.
Consider `CCNC(=O)C1(Cc2ccccc2-c2ccccc2)CCN(C(=O)c2cccc(F)c2)CC1` [CBK285689], for which the viability at 28.5 h, 10 µM was 88.7%.

With `NC(=O)C1(Cc2ccccc2-c2cccc(F)c2)CCN(C(=O)c2cccc(F)c2)CC1` [CBK285693], the viability at 28.5 h, 10 µM is 96.8%. Same read-out and setting: the same measure for `CCCNC(=O)C1(Cc2ccccc2-c2cccs2)CCN(C(=O)c2ccccc2)CC1` [CBK285694]: 95%; for `CNC(=O)C1(Cc2ccccc2-c2ccccc2)CCN(C(=O)Cc2ccccc2)CC1` [CBK285695]: 93.3%; for `CNC(=O)C1(Cc2ccccc2-c2ccccc2)CCN(C(=O)CCC2CCCC2)CC1` [CBK285696]: 89.4%. On to `CNC(=O)C1(Cc2ccccc2-c2cccs2)CCN(C(=O)Cc2ccc(C)cc2)CC1` [CBK285697], for which the viability at 28.5 h, 10 µM is 95%. Turning to `CCNC(=O)C1(Cc2ccccc2-c2ccccc2)CCN(C(=O)c2csc(C)c2)CC1` [CBK285698], the viability at 28.5 h, 10 µM turned out to be 93.3%. On to `CCNC(=O)C1(Cc2ccccc2-c2ccccc2)CCN(C(=O)c2ccccc2)CC1` [CBK285700], for which the viability at 28.5 h, 10 µM was found to be 109%.

`Cc1nc(CN2[C@H]3CCCCC(=O)N[C@@]3(C)C[C@H]2c2cccc(C(F)(F)F)c2)cs1` [CBK285701]: the viability at 28.5 h, 10 µM was found to be 91.1%. The same measure, in the same setting: the same measure for `CC(C)(Oc1ccc(F)cc1)C(=O)N1CCC(C(=O)NCCc2ccccc2)C1` (centres unmarked) [CBK285702]: 101%; for `O=C(C1CCN(S(=O)(=O)c2ccc(F)cc2)C1)N1CCN(C2CCCC2)CC1` (centres unmarked) [CBK285703]: 96.6%. On the same count and under the same terms, the same measure for `Cc1nc2ccccc2c(=O)n1CCC(=O)N1CCc2sccc2C1c1ccco1` (centres unmarked) [CBK285706]: 94.3%; for `O=C(Nc1nc2c(s1)CCCCC2)C1CCN(S(=O)(=O)c2ccc(F)cc2)C1` (centres unmarked) [CBK285708]: 111%. Turning to `Cn1c(-c2ccccc2)cnc1NC(=O)C1CCN(S(=O)(=O)c2ccc(F)cc2)C1` (centres unmarked) [CBK285709], the viability at 28.5 h, 10 µM was found to be 95.6%. Same read-out and setting: in the case of `COc1ccc(C2(C(=O)Nc3ccc(-c4ccccc4OC)cc3)CCOCC2)cc1` [CBK285710] it was 89.5%.

Regarding `COc1ccccc1-c1ccc(NC(=O)CCn2cnc3ccccc3c2=O)cc1` [CBK285711], the viability at 28.5 h, 10 µM came to 95.2%. Same read-out and setting: in the case of `COc1cccc(C(NC(=O)C2COc3ccc(OC)cc3C2)c2ccccc2)c1` (centres unmarked) [CBK285713] it was 97.7%. With `Cc1ccccc1-c1ccccc1CC1(C(=O)N(C)C)CCN(C(=O)CC(C)(C)C)CC1` [CBK285715], the viability at 28.5 h, 10 µM came out at 95.1%. For `CCNC(=O)C1(Cc2ccccc2-c2ccccc2C)CCN(C(=O)c2ccccc2)CC1` [CBK285716], the viability at 28.5 h, 10 µM turned out to be 96.6%. Still for that read-out and setting: in the case of `CCNC(=O)C1(Cc2ccccc2-c2ccccc2C)CCN(C(=O)C2CCCCC2)CC1` [CBK285717] it was 106%; in that of `CNC(=O)C1(Cc2cccc(-c3cccs3)c2)CCN(C(=O)c2ccccc2)CC1` [CBK285720], 88.3%.

With `Cc1ccccc1-c1ccccc1CC1(C(N)=O)CCN(C(=O)c2ccccc2)CC1` [CBK285721], the viability at 28.5 h, 10 µM was 89.9%. With `COc1cccc(C(=O)N2CCC(Cc3ccccc3-c3ccccc3C)(C(N)=O)CC2)c1` [CBK285722], the viability at 28.5 h, 10 µM amounted to 94.5%.

Regarding `Cc1ccccc1-c1ccccc1CC1(C(N)=O)CCN(C(=O)Cc2ccccc2)CC1` [CBK285724], the viability at 28.5 h, 10 µM worked out at 106%. Same read-out and setting: the same measure for `Cc1ccccc1-c1ccccc1CC1(C(N)=O)CCN(C(=O)CCc2ccccc2)CC1` [CBK285725]: 102%; for `COc1cccc(C(=O)N2CCC(Cc3ccccc3-c3ccccc3)(C(N)=O)CC2)c1` [CBK285729]: 93.6%. The same measure, in the same setting: the same measure for `Cc1cccc(CC(=O)N2CCC(Cc3ccccc3-c3ccccc3)(C(N)=O)CC2)c1` [CBK285731]: 103%; for `CNC(=O)C1(Cc2cccc(-c3cccs3)c2)CCN(C(=O)COc2ccccc2)CC1` [CBK285732]: 95.5%. For the compound `O=C(Nc1cccc(-c2cccc(F)c2)c1)c1ccccc1Cn1cncn1` [CBK285735], the viability at 28.5 h, 10 µM is 87.4%. Still for that read-out and setting: in the case of `COc1cccc(C(NC(=O)C2COc3c(cccc3OC)C2)c2ccccc2)c1` (centres unmarked) [CBK285736] it was 94.7%; in that of `COc1ccc(C(NC(=O)c2ccc(N3C(=O)CCC3=O)cc2)c2ccccc2)cc1` (centres unmarked) [CBK285737], 93%; in that of `COc1cccc(CC(=O)N2CCC(Cc3cccc(-c4cccs4)c3)(C(N)=O)CC2)c1` [CBK285738], 96.4%.

As to `NC(=O)C1(Cc2cccc(-c3cccs3)c2)CCN(C(=O)COc2ccccc2)CC1` [CBK285741], the viability at 28.5 h, 10 µM was 103%.

As to `CNC(=O)C1(Cc2cccc(-c3cccs3)c2)CCN(C(=O)Cc2ccccc2)CC1` [CBK285745], the viability at 28.5 h, 10 µM stood at 93.3%. Consider `CNC(=O)C1(Cc2ccccc2-c2cccs2)CCN(C(=O)Cc2ccccc2)CC1` [CBK285746], for which the viability at 28.5 h, 10 µM is 90.8%. On the same count and under the same terms, in the case of `COc1ccccc1-c1ccc(NC(=O)C2(c3cccc(F)c3)CCOCC2)cc1` [CBK285747] it was 103%. For `COc1ccc(C(NC(=O)c2ccc(C(C)N3CCOCC3)o2)c2ccccc2)cc1` (centres unmarked) [CBK285748], the viability at 28.5 h, 10 µM is 112%. Still for that read-out and setting: the same measure for `CC(C)NC(=O)C1(Cc2ccc(-c3ccccc3)cc2)CCN(C(=O)C2CCC2)CC1` [CBK285750]: 102%. Take `CC(C)NC(=O)C1(Cc2ccc(-c3ccccc3)cc2)CCN(C(=O)C2CCCC2)CC1` [CBK285751]: the viability at 28.5 h, 10 µM stood at 101%. On the same count and under the same terms, the same measure for `Cc1cccc(CC(=O)N2CCC(Cc3cccc(-c4cccs4)c3)(C(N)=O)CC2)c1` [CBK285752]: 107%; for `O=C(Cn1cc(C(=O)NCc2ccccc2)ccc1=O)NC1(c2ccccc2)CCCC1` [CBK285753]: 95.7%; for `Cc1cccc(-c2ccc(CC3(C(=O)NC(C)C)CCN(C(=O)C4CC4)CC3)cc2)c1` [CBK285757]: 93.3%. For `Cc1cccc(-c2ccc(CC3(C(=O)NC(C)C)CCN(C(=O)C(C)(C)C)CC3)cc2)c1` [CBK285758], the viability at 28.5 h, 10 µM stood at 96.2%.

`CNC(=O)C1(Cc2ccc(-c3ccccc3)cc2)CCN(C(=O)CC2CCCCC2)CC1` [CBK285763]: the viability at 28.5 h, 10 µM came to 112%. For the compound `CNC(=O)C1(Cc2ccc(-c3ccccc3)cc2)CCN(C(=O)Cc2ccccc2)CC1` [CBK285764], the viability at 28.5 h, 10 µM was 103%.

`CNC(=O)C1(Cc2ccc(-c3ccccc3)cc2)CCN(C(=O)CCc2ccccc2)CC1` [CBK285765]: the viability at 28.5 h, 10 µM stood at 91.8%. For the compound `CNC(=O)C1(Cc2ccc(-c3ccccc3)cc2)CCN(C(=O)COc2ccccc2)CC1` [CBK285766], the viability at 28.5 h, 10 µM is 92.7%.

For `CNC(=O)C1(Cc2ccc(-c3ccccc3)cc2)CCN(C(=O)Cc2ccccc2F)CC1` [CBK285768], the viability at 28.5 h, 10 µM was determined as 94.8%. On to `COc1cccc(C(=O)N2CCC(Cc3ccc(-c4ccccc4)cc3)(C(N)=O)CC2)c1` [CBK285770], for which the viability at 28.5 h, 10 µM is 103%.

Consider `NC(=O)C1(Cc2ccc(-c3ccccc3)cc2)CCN(C(=O)Cc2ccccc2)CC1` [CBK285771], for which the viability at 28.5 h, 10 µM came out at 115%.

In the case of `Cc1cccc(-c2ccc(CC3(C(N)=O)CCN(C(=O)c4ccccc4)CC3)cc2)c1` [CBK285778], the viability at 28.5 h, 10 µM was 93.9%. `Cc1cccc(-c2ccc(CC3(C(N)=O)CCN(C(=O)Cc4ccccc4)CC3)cc2)c1` [CBK285780]: the viability at 28.5 h, 10 µM amounted to 101%. For the compound `NC(=O)C1(Cc2cccc(-c3cccs3)c2)CCN(C(=O)CCc2ccccc2)CC1` [CBK285782], the viability at 28.5 h, 10 µM was determined as 91.3%. For `CNC(=O)C1(Cc2ccc(-c3ccccc3)cc2)CCN(C(=O)c2cccc(OC)c2)CC1` [CBK285788], the viability at 28.5 h, 10 µM came out at 105%. With `Nc1ncc(-c2ccc(C(F)(F)F)cc2)c(C2CCCN(C(=O)c3ccccc3)C2)n1` (centres unmarked) [CBK285790], the viability at 28.5 h, 10 µM is 89.2%. Same read-out and setting: the same measure for `Nc1ncc(-c2ccc(C(F)(F)F)cc2)c(C2CCCN(C(=O)C3CCCCC3)C2)n1` (centres unmarked) [CBK285791]: 98.9%; for `CCNC(=O)C1(Cc2ccc(-c3cccs3)cc2)CCN(C(=O)Cc2ccccc2)CC1` [CBK285795]: 115%; for `Cc1cccc(CC(=O)N2CCC(Cc3ccc(-c4cccc(C)c4)cc3)(C(N)=O)CC2)c1` [CBK285798]: 104%. Turning to `O=C(Cc1c[nH]c2ccccc12)N1CCCC1c1cccc(Cc2ccccc2F)n1` (centres unmarked) [CBK285799], the viability at 28.5 h, 10 µM is 89.7%. Regarding `CCOc1ccc(C2CCCN2S(=O)(=O)c2c[nH]c(=O)[nH]c2=O)cc1` (centres unmarked) [CBK285806], the viability at 28.5 h, 10 µM was determined as 92.6%. Regarding `CCOc1ccccc1-c1ccccc1NC(=O)c1ccc2c(c1)ncn2C1CC1` [CBK285808], the viability at 28.5 h, 10 µM stood at 84.3%.

Take `CCOCc1ccc(C(=O)N2CCNC(=O)C2Cc2ccc(-c3cccs3)cc2)cc1` (centres unmarked) [CBK285811]: the viability at 28.5 h, 10 µM turned out to be 97.3%.

Turning to `CN1CCN(C(=O)c2n[nH]c3c2CCCC3)C(Cc2ccc(-c3cccs3)cc2)C1=O` (centres unmarked) [CBK285812], the viability at 28.5 h, 10 µM was 101%. For `Cc1ccc2[nH]c(Cc3ccc(NC(=O)c4cccc5c(=O)cc(C)[nH]c45)cc3)nc2c1` [CBK285814], the viability at 28.5 h, 10 µM stood at 99.5%. Still for that read-out and setting: the same measure for `Cc1ccc2[nH]c(Cc3ccc(NC(=O)c4cc(=O)n(C)c5ccccc45)cc3)nc2c1` [CBK285815]: 98.5%. In the case of `Cn1c(=O)c(C(=O)Nc2ccc(OCc3ccccc3F)cc2)nc2ccccc21` [CBK285820], the viability at 28.5 h, 10 µM is 103%. Same read-out and setting: in the case of `COc1ccc(-c2ccc(OC)cc2C(=O)Nc2ccc3c(c2)OCC(=O)N3)cc1` [CBK285821] it was 101%; in that of `Cc1ccc2[nH]c(Cc3ccc(NC(=O)CCC4C(=O)Nc5ccccc54)cc3)nc2c1` (centres unmarked) [CBK285824], 91%; in that of `Cc1c(C(=O)Nc2cccc(-c3nc4ccccc4s3)c2)sc2nc[nH]c(=O)c12` [CBK285825], 80.5%.

Staying with this data set, now noted: human, hela cells, % viability, bulk resorufin, single well.
As to `O=C(CCC1C(=O)NC(=O)NC1=O)Nc1ccc(Oc2ccc(F)cc2)cc1` [CBK285712], the viability at 28.5 h, 10 µM came out at 88%. Turning to `Cc1cc2cc(NC(=O)CCC3C(=O)NC(=O)NC3=O)cc(Cl)c2o1` [CBK285826], the viability at 28.5 h, 10 µM was 93%.

As usually defined, the viability is a read-out of living cells in per cent, often relative to untreated cells.
